Reference: patent publication US6482849B1, “Inhibitors of α4β1 mediated cell adhesion” (Tanabe Seiyaku Co., Ltd., priority 1997, dated 2002)
Where two headings read alike, the source gives them in different places.

How the values were obtained:
[1] = molecular target: T1, α4β1 integrin (Jurkat T-cell adhesion to IL-1 stimulated endothelial cell monolayers) (Homo sapiens, UniProt P05556+P13612); assay: Jurkat-Endothelial Cell Adhesion Assay (Jurkat EC); type: cell-based; conditions: Jurkat cells on IL-1 stimulated HUVEC monolayers
T1 construct: a T-cell line, Jurkat, known to express the α4β1 integrin; host or cells: Jurkat T-cell line
T1 sequence (P13612 34-1032): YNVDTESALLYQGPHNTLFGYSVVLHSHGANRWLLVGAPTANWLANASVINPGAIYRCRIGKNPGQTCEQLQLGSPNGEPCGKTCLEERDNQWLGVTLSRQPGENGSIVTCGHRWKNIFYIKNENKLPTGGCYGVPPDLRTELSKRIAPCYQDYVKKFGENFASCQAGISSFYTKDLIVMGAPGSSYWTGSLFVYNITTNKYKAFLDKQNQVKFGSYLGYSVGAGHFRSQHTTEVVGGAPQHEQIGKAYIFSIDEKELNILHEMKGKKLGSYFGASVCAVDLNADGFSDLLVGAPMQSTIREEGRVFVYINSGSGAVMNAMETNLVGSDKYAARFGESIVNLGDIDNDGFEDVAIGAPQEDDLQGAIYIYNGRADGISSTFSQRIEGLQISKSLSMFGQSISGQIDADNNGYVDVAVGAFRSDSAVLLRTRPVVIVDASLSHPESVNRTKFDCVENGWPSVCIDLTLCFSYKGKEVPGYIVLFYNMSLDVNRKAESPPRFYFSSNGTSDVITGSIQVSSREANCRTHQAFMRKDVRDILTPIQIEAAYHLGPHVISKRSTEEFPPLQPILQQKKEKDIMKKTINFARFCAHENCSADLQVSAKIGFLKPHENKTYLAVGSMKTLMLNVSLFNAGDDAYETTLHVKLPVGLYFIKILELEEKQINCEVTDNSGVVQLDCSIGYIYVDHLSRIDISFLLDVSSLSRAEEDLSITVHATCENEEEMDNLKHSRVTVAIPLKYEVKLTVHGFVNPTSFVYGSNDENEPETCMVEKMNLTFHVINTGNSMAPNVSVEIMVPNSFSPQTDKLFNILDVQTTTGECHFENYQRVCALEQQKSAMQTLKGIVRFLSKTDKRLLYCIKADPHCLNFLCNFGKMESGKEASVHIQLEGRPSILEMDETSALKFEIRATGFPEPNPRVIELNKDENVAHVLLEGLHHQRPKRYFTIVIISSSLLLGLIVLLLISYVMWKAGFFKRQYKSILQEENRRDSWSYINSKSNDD
T1 sequence (P05556 21-798): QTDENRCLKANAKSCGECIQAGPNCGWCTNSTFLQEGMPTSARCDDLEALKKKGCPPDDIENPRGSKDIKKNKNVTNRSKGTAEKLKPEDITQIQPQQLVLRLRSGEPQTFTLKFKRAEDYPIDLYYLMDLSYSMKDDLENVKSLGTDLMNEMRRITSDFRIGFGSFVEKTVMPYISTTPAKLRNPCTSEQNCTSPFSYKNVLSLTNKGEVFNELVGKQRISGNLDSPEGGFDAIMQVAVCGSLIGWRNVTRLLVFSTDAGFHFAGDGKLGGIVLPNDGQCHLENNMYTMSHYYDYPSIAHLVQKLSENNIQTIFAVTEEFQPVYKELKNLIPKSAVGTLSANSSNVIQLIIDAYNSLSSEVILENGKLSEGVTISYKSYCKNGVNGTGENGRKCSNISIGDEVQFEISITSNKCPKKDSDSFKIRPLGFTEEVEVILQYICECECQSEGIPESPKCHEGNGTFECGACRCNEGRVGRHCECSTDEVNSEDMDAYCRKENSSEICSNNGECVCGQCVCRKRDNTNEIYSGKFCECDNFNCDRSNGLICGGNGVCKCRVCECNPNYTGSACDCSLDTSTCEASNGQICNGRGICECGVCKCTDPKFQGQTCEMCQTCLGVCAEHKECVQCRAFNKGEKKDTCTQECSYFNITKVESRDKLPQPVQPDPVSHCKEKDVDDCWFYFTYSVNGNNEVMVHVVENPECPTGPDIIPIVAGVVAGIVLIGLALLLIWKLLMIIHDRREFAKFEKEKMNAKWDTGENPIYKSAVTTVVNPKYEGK
Method in brief: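 BCECF-loaded Jurkat cells (5×10^5) mixed with compound (generally 100, 20, 5 and 1.25 μM) and added to HUVEC monolayers prestimulated 4 hr with 0.1 ng/ml IL-1, in DMEM-HSA. After 5 min on ice and 20 min at 37° C, washed; fluorescence gives % adhesion relative to no-compound control set at 100%.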

[2] = molecular target: T2, α4β1 integrin (Jurkat cell adhesion to immobilized CS-1 derived peptide CLHPGEILDVPST) (Homo sapiens, UniProt P05556+P13612); assay: Jurkat-CS-1 Assay; type: cell-based; conditions: Jurkat cells on CS-1 peptide coated plates
T2 construct: 100 μl of Jurkat cells (2.5×10^6 cells/ml) in DMEM plus BSA; endogenous in cells; host or cells: Jurkat T-cell line
T2 sequence (P13612 34-1032): as the sequence (P13612 34-1032) above
T2 sequence (P05556 21-798): as the sequence (P05556 21-798) above
Method in brief: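 CS-1 peptide was SPDP-crosslinked onto HSA-coated plates and blocked with BSA. Jurkat cells (2.5×10^6 cells/ml) in DMEM/BSA were mixed with compound, generally at 100, 20, 5 and 1.25 μM, and allowed to adhere for 1 hr at 37° C. Bound cells were fixed, stained with toluidine blue and quantified by OD590.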

[3] = tested on: VLA-4 integrin-dependent eosinophil infiltration; assay: Dextran pleurisy model (dextran-induced pleural leukocyte infiltration); type: in vivo, C57BL/6 mice; conditions: 4 h post-induction; for change in vivo at 50 mg/kg / change in vivo at 25 mg/kg: Mus musculus; for change in vivo at 25 mg/kg: 25 mg/kg × 2 iv (0h,+1h relative to dextran)
Description: C57BL/6 mice (Jackson, Bar Harbor, Me.;), 6-8 weeks old, weighing 20-25 g were used throughout. All mice were acclimated for at least 7-14 days after arrival and maintained under controlled temperature (20-22° C.) and a 12 hr daily light cycle (6.00 A.M.-6.00 P.M.). Mice were housed in laminar flow racks and checked biweekly for viral infections (mouse hepatitis virus, minute virus of mice, rodent orphan parvovirus, Sendai) with kits obtained from Oreganon Teknika (Durham, N.C.) using established enzyme-linked immunoabsorbent assays. Mice testing positive for any of the above were omitted from the study. All mice were fed standard laboratory chow (Upjohn Lab Rodent Irradiated Mouse Chow, #5011-3, PMI Feeds, St. Louis, Mo.) and acidified drinking water (pH 5.0) ad libitum.
Intrapleural injections were made using a 27 G needle cut to 3-4 mm and blunted by filing. Injections were made by inserting the needle between the mid-intercostal ribs on the right side of the thoracic cavity.
Dextran (MW 5-40×10^6, St Louis, Mo.) was injected as a 10% solution in saline in a volume of 100 μl/mouse. Care was taken to avoid bleeding at the site of injection at which the intercostal muscles were cut to facilitate smooth insertion of the needle.
Pleural leukocytes were collected as follows: 4 h post-induction, pleural inflammatory exudate was removed by washing with 2×1.0 ml Ca^++/Mg^++ free HBSS (Gibco, Grand Island, N.Y.) containing 45 mg EDTA/100 ml HBSS, 4° C. Total leukocyte counts were made by hemocytometer following erythrocyte lysis in 2% acetic acid in PBS buffer; exudate leukocyte pellets were resuspended in serum for cytospin preparations and stained (Diff Quik, Baxter Healthcare, McGraw Park, Ill.) for differential leukocyte counts (neutrophils, eosinophils, and mononuclear leukocytes).
The pleural cavities of mice receiving either no intrapleural injection, or saline were washed and the cells counted in the same way to estimate baseline or saline-induced pleural leukocyte counts respectively.
All drugs were dissolved in PBS and the pH adjusted to 7.5 with NaOH. Each drug was administered intravenously through the retroorbital sinus at hourly intervals (0-3 h) starting from time “0” as indicated.
The following camphoric acid analogues were tested for their inhibitory effects on dextran-induced leukocyte infiltration: Examples 4, 12, 54, 63, 166, 93, 180, 181, 183, 184, 217, Camphoric acid or PBS (saline) was administered iv. as a control. Inhibition of eosinophil infiltration, which was suppressed by anti-alpha-4 Mab (PS/2, 50%), was used as a readout of VLA-4 antagonist activity of the camphoric acids tested. Data for neutrophils are also reported.

[4] = tested on: contact hypersensitivity response; conditions: in vivo; cited from earlier work
[5] = Eosinophil, 50 mg/kg × 2 iv (0h,+1h relative to dextran), read-out: %Δ Pleural Leukocytes, Eos
[6] = Neutrophil, 50 mg/kg × 2 iv (0h,+1h relative to dextran), read-out: %Δ Pleural Leukocytes, Neutro
[7] = 50 mg/kg × 2 iv (0h,+1h relative to dextran)
[8] = 50 mg/kg × 4 iv (0h,+1h,+2h,+3h relative to dextran)
[9] = Eosinophil, read-out: %Δ Pleural Leukocytes, Eos
[10] = Neutrophil, read-out: %Δ Pleural Leukocytes, Neutro

| Compound | IC50 [1] [nM] | IC50 [2] [nM] | melting point | change in vivo at 50 mg/kg [3, 5] [%] | change in vivo at 50 mg/kg [3, 6] [%] | further results |
| --- | --- | --- | --- | --- | --- | --- |
| EILDV | – | – | – | – | – | Contact hypersensitivity response [4]: blocked |
| CC1(C)[C@@H](C(=O)N[C@@H](Cc2cn(Cc3ccc(Cl)c(Cl)c3)cn2)C(=O)O)CC[C@@]1(C)C(=O)O [Example 4, (1S-cis)-N-[(3-Carboxy-2,2,3-trimethylcyclopentyl)carbonyl]-1-[(3,4-dichlorophenyl)methyl]-L-histidine] | 800 to 5000 | 80 to 500 | 148 to 149 °C (dec.) | ≤ -50 | -50 to -10 | – |
| CC1(C)[C@@H](C(=O)N[C@@H](Cc2ccc(OCc3c(Cl)cccc3Cl)cc2)C(=O)O)CC[C@@]1(C)C(=O)O (relative stereo) [Example 12, (1S-cis)-N-[(3-Carboxy-2,2,3-trimethylcyclopentyl)carbonyl]-O-[(2,6-dichlorophenyl)methyl]-L-tyrosine] | ≤ 800 | ≤ 80 | – | – | – | %Δ Pleural Leukocytes, Eos [3, 7]: A (A≦−50); %Δ Pleural Leukocytes, Neutro [3, 7]: B (−50<B<−10); %Δ Pleural Leukocytes, Eos [3, 8]: A (A≦−50); %Δ Pleural Leukocytes, Neutro [3, 8]: B (−50<B<−10) |
| CC1(C)[C@@H](C(=O)N[C@@H](Cc2ccc(NC(=O)c3c(Cl)cccc3Cl)cc2)C(=O)O)CC[C@@]1(C)C(=O)O [Example 54, (1S-cis)-N-[(3-Carboxy-2,2,3-trimethylcyclopentyl)carbonyl]-4-[(2,6-dichlorobenzoyl)amino]-L-phenylalanine] | ≤ 800 | ≤ 80 | 231 to 233 °C | – | – | change in vivo at 50 mg/kg ([3]; Eosinophil, 50 mg/kg × 4 iv (0h,+1h,+2h,+3h relative to dextran), read-out: %Δ Pleural Leukocytes, Eos): ≤ -50%; change in vivo at 50 mg/kg ([3]; Neutrophil, 50 mg/kg × 4 iv (0h,+1h,+2h,+3h relative to dextran), read-out: %Δ Pleural Leukocytes, Neutro): -50 to -10% |
| CC1(C)[C@@H](C(=O)N[C@@H](Cc2ccc(OCc3c(Cl)cccc3Cl)c([N+](=O)[O-])c2)C(=O)O)CC[C@@]1(C)C(=O)O [Example 63] | 800 to 5000 | ≤ 80 | 92 to 94 °C | -50 to -10 | -50 to -10 | change in vivo at 25 mg/kg [3, 9]: -50 to -10%; change in vivo at 25 mg/kg [3, 10]: -50 to -10% |
| CC1(C)[C@@H](C(=O)N[C@@H](Cc2ccc(NC(=O)c3cccc([N+](=O)[O-])c3)cc2)C(=O)O)CC[C@@]1(C)C(=O)O [Example 91] | 800 to 5000 | ≤ 80 | 146 to 149 °C | – | – | – |
| CC1(C)[C@@H](C(=O)N[C@@H](Cc2ccc(NC(=O)c3c(F)cccc3F)cc2)C(=O)O)CC[C@@]1(C)C(=O)O [Example 83] | ≤ 800 | ≤ 80 | 150 to 152 °C | – | – | – |
| CC1(C)[C@@H](C(=O)N[C@@H](Cc2cn(Cc3ccccc3)cn2)C(=O)O)CC[C@@]1(C)C(=O)O [Example 29] | 5000 to 10000 | 500 to 1000 | 258 to 259 °C (dec.) | – | – | – |

Second part, led by results:

| IC50 [1] [nM] | IC50 [2] [nM] | melting point | Compound | change in vivo at 50 mg/kg [3, 5] [%] | change in vivo at 50 mg/kg [3, 6] [%] | further results |
| --- | --- | --- | --- | --- | --- | --- |
| ≤ 800 | ≤ 80 | 196 to 198 °C | CC1(C)[C@@H](C(=O)N[C@@H](Cc2ccc(NC(=O)c3c(Cl)cccc3Cl)cc2)C(=O)O)CC[C@@]1(C)C(N)=O [Example 166] | -50 to -10 | -10 to 0 | – |
| ≤ 800 | ≤ 80 | – | CC1(C)[C@@H](C(=O)N[C@@H](Cc2ccc(NC(=O)c3c(Cl)cc(Cl)cc3Cl)cc2)C(=O)O)CC[C@@]1(C)C(=O)O [Example 93] | -50 to -10 | -10 to 0 | – |
| ≤ 800 | ≤ 80 | – | CC1(C)[C@@H](C(=O)N[C@@H](Cc2ccc(NC(=O)c3c(Cl)cccc3Cl)cc2)C(=O)O)CC[C@@]1(C)C(=O)NOCc1ccccc1 [Example 217] | -50 to -10 | -10 to 0 | – |
| 800 to 5000 | 500 to 1000 | 240 to 242 °C | CC1(C)[C@@H](C(=O)N[C@@H](Cc2ccc(NC(=O)Cc3ccccc3)cc2)C(=O)O)CC[C@@]1(C)C(=O)O [Example 121] | – | – | – |
| ≤ 800 | ≤ 80 | 203 to 205 °C | CC1(C)[C@@H](C(=O)N[C@@H](Cc2ccc(NC(=O)c3c(Cl)cccc3Cl)cc2)C(=O)O)CC[C@@]1(C)C(=O)NCC(N)=O [Example 180, (1S-cis)-N-[[3-[[(2-Amino-2-oxoethyl)amino]-carbonyl]-2,2,3-trimethylcyclopentyl]carbonyl]-4-[(2,6-dichlorobenzoyl)amino]-L-phenylalanine] | -50 to -10 | -50 to -10 | change in vivo at 25 mg/kg [3, 9]: -50 to -10%; change in vivo at 25 mg/kg [3, 10]: -50 to -10% |
| 5000 to 10000 | 500 to 1000 | 102 to 104 °C | CC1(C)[C@@H](C(=O)N[C@@H](Cc2ccc(OCc3c(Cl)cccc3Cl)cc2)C(=O)O)CC[C@@]1(C)C(N)=O [Example 155, (1S-cis)-N-[[3-(Aminocarbonyl)-2,2,3-trimethylcyclopentyl]carbonyl]-O-[(2,6-dichlorophenyl)methyl]-L-tyrosine] | – | – | – |
| 800 to 5000 | 80 to 500 | 141 to 143 °C | CC1(C)[C@@H](C(=O)N[C@@H](Cc2ccc(NC(=O)c3ccc4ccccc4c3)cc2)C(=O)O)CC[C@@]1(C)C(=O)O [Example 124] | – | – | – |
| 800 to 5000 | 80 to 500 | 158 to 161 °C | CC1(C)[C@@H](C(=O)N[C@@H](Cc2ccc(NC(=O)c3ccco3)cc2)C(=O)O)CC[C@@]1(C)C(=O)O [Example 130] | – | – | – |
| ≤ 800 | ≤ 80 | – | CC1(C)[C@@H](C(=O)N[C@@H](Cc2ccc(NC(=O)c3c(Cl)cccc3Cl)cc2)C(=O)O)CC[C@@]1(C)C(=O)NCC(=O)O [Example 181, (1S-cis)-N-[[3-[[(Carboxymethyl)amino]carbonyl]-2,2,3-trimethylcyclopentyl]carbonyl]-4-[(2,6-dichlorobenzoyl)amino]-L-phenylalanine] | -50 to -10 | -50 to -10 | change in vivo at 25 mg/kg [3, 9]: -50 to -10%; change in vivo at 25 mg/kg [3, 10]: -50 to -10% |
| ≤ 800 | ≤ 80 | – | CC1(C)[C@@H](C(=O)N[C@@H](Cc2ccc(NC(=O)c3c(Cl)cccc3Cl)cc2)C(=O)O)CC[C@@]1(C)C#N [Example 184, (1S-cis)-N-[[3-Cyano-2,2,3-trimethylcyclopentyl]carbonyl]-4-[(2,6-dichlorobenzoyl)amino]-L-phenylalanine] | ≤ -50 | -50 to -10 | change in vivo at 25 mg/kg [3, 9]: -50 to -10%; change in vivo at 25 mg/kg [3, 10]: -50 to -10% |
